Source: patent US20220054476A1, “SUSTAINED LOCAL DRUG LEVELS FOR INNATE IMMUNE AGONISTS” (Ascendis Pharma Oncology Division A/S, priority 2019, published 2022)
Marks after values point to notes of the source that are not given here.

How the values were obtained:
CT26 tumor cells = assay: In vivo anti-tumor efficacy, absolute tumor volumes (Example 11); parameters: species or system BALB/C mice; settings: single intratumoral dose (4: 20 μg; 13c: 50 μL)
Description: Mice were subcutaneously implanted with 3×10^5 CT26 tumor cells in the left and right flanks. […] Hydrogels were administered as suspensions in PBST buffer. Following treatment initiation, anti-tumor efficacy was assessed by determination of tumor volumes at various time points from tumor size measurements with a caliper. Tumor volumes were calculated according to the formula: Tumor volume=(L×W^2)×0.5 where L is the length of the tumor and W the width (both in mm). Mice were removed from the study once tumors were greater than 1500 mm^3.

[1] = tested on: cytokine and chemokine genes (Il1a, Ccl3, Il1b, Cxcl2, Ccl2, Ccl4, Il10, Ifna4, Cxcl1, Cxcl10, Tnf) in PBMC; assay: PBMC gene expression 6 hours post-treatment, qPCR (Example 17); format: in vivo, BALB/C mice; parameters: key to Cxcl2 gene expression, Mean (2^ΔΔCT) / Ccl2 gene expression, Mean (2^ΔΔCT) / Ccl4 gene expression, Mean (2^ΔΔCT) / Ifna4 gene expression, Mean (2^ΔΔCT) / Cxcl1 gene expression, Mean (2^ΔΔCT) / Cxcl10 gene expression, Mean (2^ΔΔCT) / Il1a gene expression, Mean (2^ΔΔCT) / Tnf gene expression, Mean (2^ΔΔCT): fold change vs untreated, 2^-ΔΔCT, normalized to B2M/UBB/GAPDH
Description: Hydrogels were administered as suspensions in […]. […] Tumors were excised, weighed and snap frozen. […] For PBMC isolations, approximately 600 μl of whole blood was collected via cardiac puncture. The collected whole blood from each individual mouse was diluted with a 1:1 ratio of pre-warmed PBS supplemented with 2% Fetal Bovine Serum (FBS). Then an equal volume of Histopaque-1083 was added to a new sterile 15 mL conical tube, where the diluted whole blood was layered over the Histopaque-1083. The mixture was then centrifuged at 400 g for 30 minutes. The top plasma layer was discarded, and the white translucent interlayer (mononuclear cells) was carefully transferred to a new sterile centrifuge tube. The mononuclear cells were then washed with PBS supplemented with 2% FBS and then were spun down at 250 g for 10 minutes. Afterwards, the cells were lysed with 2 ml of Ammonium-Chloride-Potassium (ACK) lysis buffer (Gibco) for 5 minutes at room temperature to get rid of the red blood cells following manufacturer's instruction. Subsequently, the cells were washed twice with PBS supplemented with 2% FBS and were centrifuged at 250 g for 10 minutes. Then, the supernatant was removed and the PBMC cell pellet was lysed in RLT buffer (Qiagen) and stored at −80° C. before being proceeded to RNA extraction and isolation. Lysates from untreated control samples and 6 hour treated samples were thawed and RNA was isolated using the RNeasy Mini Kit (QIAGEN) following manufacturer's recommendations. Following the first column washing step, DNA was digested directly on the column using the RNase-free DNase Set (TIANGEN) following manufacturer's recommendations. RNA was eluted with RNase-free water. RNA concentrations were measured using a NanoDrop (ThermoFisher) and then adjusted to 200 ng/mL with RNase-free water. RNA quality was assessed using a NanoDrop (ThermoFisher). […] Reverse transcription was performed using random primers, 10 mM dNTP mix, and RNase inhibitor (TIANGEN). Reverse transcription was performed with the following thermal steps: 25° C. for 10 minutes, 37° C. for 120 minutes, 55° C. for 5 minutes. 200 ng of cDNA was used for quantitative PCR using the RT^2 SYBR Green ROX qPCR Master mix (2×) kit (QIAGEN) following manufacturer's recommendations. Probe sets used for qPCR reactions are as follows: [table] Cycle thresholds (CT) were collected using a 384-well platform ABI-7900H real-time qPCR system (Applied Biosystems). B2M, Ubb and GAPDH were used as housekeeping control genes. Data is reported as the average of the 2^-ΔΔCT values for each treatment. 2^-ΔΔCT values were calculated with the following formula: 2^-ΔΔCT=2^−(ΔCT(treated)−ΔCT(untreated)) ΔCT(treated)═CT(treated)−CT (average treated housekeeping) where CT(treated)═CT of the gene of interest of a sample triplicate in the treatment group and CT (treated housekeeping)=Total average CT of the B2M, UBB and GAPDH housekeeping genes of the same sample triplicate in the same treatment group. ΔCT(untreated)═CT (untreated)−CT (untreated housekeeping) where CT (untreated)=average of the CTs of the untreated triplicates at the same timepoint as the CT(treated) comparator and CT (untreated housekeeping)=Total average CT of the B2M, UBB and GAPDH housekeeping genes of the untreated triplicates. For each gene, 3 technical replicates were analyzed per biological replicate. Undetermined technical replicate CT values were recorded as zero ΔCT values. 4-5 biological replicates were assessed in total.

[2] = tested on: Ly-6C^+ antigen presenting cells, MHCII^+ antigen presenting cells, CD8^+, Ly-6C^+ CD8^+ and CD4^+ T cells of tumor draining lymph nodes; assay: Flow cytometric profiling of tumor draining lymph node immune cells (Example 15); format: in vivo, BALB/C mice; settings: 7 days after randomization
Description: Hydrogels were administered as suspension in PTP buffer. Some cohorts were further treated with 20 μg human IL-2 (Peprotech, Rocky Hill, N.J.), intraperitoneally (I.P.), twice a day for 5 days. Mice were sacrificed 7 days after randomization (D0). Following sacrifice, tumor draining lymph nodes were isolated from both flanks and were dissociated mechanically to generate a single cell suspension at a cell concentration of 1×10^6 cells per sample. Cell suspensions were centrifuged at 300 g for 5 minutes. Supernatants were discarded and cells were resuspended in FACS buffer with 1 μg/ml Fc-Block and incubated at 4° C. for 10 minutes in the dark. Surface marker antibody mixtures (antibody concentration: 10 μg/mL) in FACS buffer were added to each sample and samples were incubated in the dark at 4° C. for 30 minutes. Cells were centrifuged at 300 g for 5 minutes and supernatants were discarded. Cells were washed and then resuspended with FACS buffer before cytometer collection.
After collection, FACS data was analyzed using FlowJo Version 10.6.1. Compensation was digitally adjusted using single antibody-stained beads. Samples with less than 90% viability, as determined by LiveDead cell staining, were excluded from the analysis. Cells were defined using the following gating strategy: • 1) Ly-6C^+ antigen presenting cells: FSC-H/FSC-A Singlets/LiveDead^−/CD45^+/CD3^−/CD335^−/Ly-6C^+ • 2) Ly-6C^+ MHCII^+ antigen presenting cells: FSC-H/FSC-A Singlets/LiveDead^−/CD45^+/CD3^−/CD335^−/Ly-6C^+/IA/IE (MHCII)^+ • 3) CD8^+ T cells: FSC-H/FSC-A Singlets/LiveDead^−/CD45^+/CD3^+/CD8 single positive • 4) Ly-6C^+ CD8^+ T cells: FSC-H/FSC-A Singlets/LiveDead^−/CD45^+/CD3^+/CD8 single positive/Ly-6C^+

[3] = tested on: IFNγ, IL-6, CCL2/MCP-1, TNFα in plasma; assay: In vivo cytokine induction, plasma cytokine levels (Example 12); parameters: species or system BALB/C mice; settings: for IFNγ plasma level, Mean: values at/below LLOQ set to 0.01
Description: Mice were subcutaneously implanted with 3×10^5 CT26 tumor cells in the left and right flanks. […] Hydrogels were administered as suspensions in PBST buffer. K2 EDTA-preserved blood samples were collected by retro-orbital bleed at various time points following drug administration and plasma was isolated following centrifugation at 2000×g for 5 minutes at 4° C. and frozen. Plasma samples were stored at −80° C. Plasma was thawed and undiluted samples were assessed for cytokine levels using the 36-Plex Mouse ProcartaPlex™ Cytokine Panel 1A (ThermoFisher Scientific) following manufacturer's recommendations. Cytokines were measured on the Bio-Plex 200 (BioRad) following kit instructions.

in vivo = assay: in vivo; parameters: species or system WISTAR rats; settings: male, Wistar, rat, sc, 25 ug; for half-life: t1/2 (biphasic)
From the text: Hydrogels were suspended (ca. 6% wt/v) PBST buffer at pH 7.4. […] Blood samples were withdrawn and used for plasma generation over the course of 28 d. […] Plasma concentration profiles were generated and analyzed with Phoenix WinNonlin software (Certara, Princeton, N.J., USA).

[4] = Resiquimod concentration in plasma samples after intratumoral injection (Example 17); format: in vivo, BALB/C mice; settings: female, BALB/C, mouse, other: intratumoral injection, 10 μg
Description: Hydrogels were administered as suspensions in PTP buffer. […] Tumors were excised, weighed and snap frozen.

[5] = 1 h post-treatment, single intratumoral dose
[6] = 3 h post-treatment, single intratumoral dose
[7] = 6 h post-treatment, single intratumoral dose
[8] = 10 h post-treatment, single intratumoral dose
[9] = 24 h post-treatment, single intratumoral dose

- AUC (in vivo): 65.4 ng·h/mL
- Cmax (in vivo): 23.1 ng/mL
- half-life (in vivo; first value): 1.5 h
- half-life (in vivo; second value): 10 h
- concentration at 0 h ([4]; 0 hours): 210 ng/mL
- concentration at 6 h ([4]; 6 hours): 0.36 ng/mL
- concentration at 22 h ([4]; 22 hours): 0.022 ng/mL
- concentration at 72 h ([4]; 72 hours): 0.014 ng/mL
SMILES: CCOCc1nc2c(N)nc3ccccc3c2n1CC(C)(C)O [Compound 4, Resiquimod]
- Absolute Tumor Volumes, Mean (CT26 tumor cells; day 0 post-treatment): 88.82 mm^3
- Absolute Tumor Volumes, Mean (CT26 tumor cells; day 2 post-treatment): 108.44 mm^3
- Absolute Tumor Volumes, Mean (CT26 tumor cells; day 4 post-treatment): 128.42 mm^3
- Absolute Tumor Volumes, Mean (CT26 tumor cells; day 7 post-treatment): 316.07 mm^3
- Absolute Tumor Volumes, Mean (CT26 tumor cells; day 9 post-treatment): 549.72 mm^3
- Absolute Tumor Volumes, Mean (CT26 tumor cells; day 11 post-treatment): 957.90 mm^3
- Absolute Tumor Volumes, Mean (CT26 tumor cells; day 14 post-treatment): 1220.96 mm^3
- Ccl2 gene expression, Mean (2^ΔΔCT) ([1]; qPCR): 6.75
- Ccl3 gene expression, Mean (2^ΔΔCT) ([1]; qPCR): 1.43†
- Ccl4 gene expression, Mean (2^ΔΔCT) ([1]; qPCR): 1.31
- Cxcl1 gene expression, Mean (2^ΔΔCT) ([1]; qPCR): 7.41
- Cxcl2 gene expression, Mean (2^ΔΔCT) ([1]; qPCR): 35.37
- Cxcl10 gene expression, Mean (2^ΔΔCT) ([1]; qPCR): 45.38
- Ifna4 gene expression, Mean (2^ΔΔCT) ([1]; qPCR): 2.97
- Il1a gene expression, Mean (2^ΔΔCT) ([1]; qPCR): 0.41
- Il1b gene expression, Mean (2^ΔΔCT) ([1]; qPCR): 3.71†
- Il10 gene expression, Mean (2^ΔΔCT) ([1]; qPCR): 2.77†
- Tnf gene expression, Mean (2^ΔΔCT) ([1]; qPCR): 4.64
- Ccl2 Fold change (4/13i) ([1]; ratio of mean 4 to mean 13i): 2.82
- Ccl3 Fold change (4/13i) ([1]; ratio of mean 4 to mean 13i): 1.64
- Ccl4 Fold change (4/13i) ([1]; ratio of mean 4 to mean 13i): 1.74
- Cxcl1 Fold change (4/13i) ([1]; ratio of mean 4 to mean 13i): 11.54
- Cxcl2 Fold change (4/13i) ([1]; ratio of mean 4 to mean 13i): 6.43
- Cxcl10 Fold change (4/13i) ([1]; ratio of mean 4 to mean 13i): 21.41
- Ifna4 Fold change (4/13i) ([1]; ratio of mean 4 to mean 13i): 20.48
- Il1a Fold change (4/13i) ([1]; ratio of mean 4 to mean 13i): 1.78
- Il1b Fold change (4/13i) ([1]; ratio of mean 4 to mean 13i): 7.92
- Il10 Fold change (4/13i) ([1]; ratio of mean 4 to mean 13i): 2.29
- Tnf Fold change (4/13i) ([1]; ratio of mean 4 to mean 13i): 4.45
- Frequency of CD4^+ T cells of CD3^+ T cells, Mean ([2]; injected right flank tumor): 69.1%
- Frequency of CD8^+ T cells of CD3^+ T cells, Mean ([2]; injected right flank tumor): 29.23%
- Frequency of IA-IE (MHCII)^+ antigen presenting cells of Ly-6C^+ antigen presenting cells, Mean ([2]; injected right flank tumor): 69.63%
- Frequency of Ly-6C^+ T cells of CD8^+ T cells, Mean ([2]; injected right flank tumor): 53.7%
- Frequency of Ly-6C^+ antigen presenting cells of non-T cells, Mean ([2]; injected right flank tumor): 2.5%
- Frequency of CD4^+ T cells of CD3^+ T cells, Mean ([2]; uninjected left flank tumor): 69.25%
- Frequency of CD8^+ T cells of CD3^+ T cells, Mean ([2]; uninjected left flank tumor): 29%
- Frequency of IA-IE (MHCII)^+ antigen presenting cells of Ly-6C^+ antigen presenting cells, Mean ([2]; uninjected left flank tumor): 35.05%
- Frequency of Ly-6C^+ T cells of CD8^+ T cells, Mean ([2]; uninjected left flank tumor): 48%
- Frequency of Ly-6C^+ antigen presenting cells of non-T cells, Mean ([2]; uninjected left flank tumor): 7.8%
- CCL2/MCP-1 plasma level, Mean [3, 5]: 357.83 pg/mL
- IL-6 plasma level, Mean [3, 5]: 3618.87†, ‡ pg/mL
- TNFα plasma level, Mean [3, 5]: 830.84 pg/mL
- IFNγ plasma level, Mean ([3]; 1 h post-treatment, single intratumoral dose (4: 20 μs; 13c: 50 μL)): 4.04 pg/mL
- CCL2/MCP-1 plasma level, Mean [3, 6]: 4230.35†, ‡ pg/mL
- IL-6 plasma level, Mean [3, 6]: 1739.75†, ‡ pg/mL
- TNFα plasma level, Mean [3, 6]: 136.25 pg/mL
- IFNγ plasma level, Mean [3, 6]: 15.49†, ‡ pg/mL
- CCL2/MCP-1 plasma level, Mean [3, 7]: 1039.17†, ‡ pg/mL
- IL-6 plasma level, Mean [3, 7]: 88.59 pg/mL
- TNFα plasma level, Mean [3, 7]: 35.49 pg/mL
- IFNγ plasma level, Mean [3, 7]: 40.72†, ‡ pg/mL
- CCL2/MCP-1 plasma level, Mean [3, 8]: 847.07† pg/mL
- IL-6 plasma level, Mean [3, 8]: 154.51 pg/mL
- TNFα plasma level, Mean [3, 8]: 43.32 pg/mL
- IFNγ plasma level, Mean [3, 8]: 28.19†, ‡ pg/mL
- CCL2/MCP-1 plasma level, Mean [3, 9]: 92.58 pg/mL
- IL-6 plasma level, Mean [3, 9]: 44.71 pg/mL
- TNFα plasma level, Mean [3, 9]: 9.74 pg/mL
- IFNγ plasma level, Mean [3, 9]: 2.38 pg/mL
